Assay results taken from DBAASP.
Converted amounts (≈) assume the structure as drawn. Values belong to the compound of their own block, whether it stands above or below them.

Tests used:
Test in all cases: ≥ marks a high value that may be exact or a test limit, other limits are often not marked, values filed in µg/mL are converted to µM
[1] = system: Staphylococcus aureus ATCC 29213
[2] = system: Escherichia coli ATCC 25922
[3] = system: Pseudomonas aeruginosa ATCC 27853
[4] = system: Candida albicans ATCC 90028
[5] = system: Pseudomonas aeruginosa ATCC 9027
[6] = system: Staphylococcus aureus ATCC 6538
Escherichia coli = system: Escherichia coli
Bacillus subtilis = system: Bacillus subtilis
[7] = system: Staphylococcus epidermidis ATCC 12228
[8] = system: Staphylococcus aureus ATCC 25923
[9] = system: Acinetobacter baumannii ATCC 19606
Candida albicans = system: Candida albicans
Staphylococcus aureus = system: Staphylococcus aureus
[10] = system: Enterococcus faecalis ATCC 29212

- MIC [1]: 20 µM (≈ 30 µg/mL)
- MIC [2]: 2.5 µM (≈ 3.75 µg/mL)
- MIC [3]: 5 µM (≈ 7.5 µg/mL)
- MIC [4]: 10 µM (≈ 15 µg/mL)
SMILES: CC[C@H](C)[C@H](NC(=O)[C@H](CCCN=C(N)N)NC(=O)[C@@H](N)CCCCN)C(=O)N[C@@H](C)C(=O)N[C@@H](CCC(N)=O)C(=O)N[C@@H](CCCN=C(N)N)C(=O)N[C@H](C(=O)N[C@@H](CCCCN)C(=O)N[C@@H](C)C(=O)N[C@@H](Cc1ccccc1)C(=O)N[C@@H](CC(C)C)C(=O)N[C@@H](CCCN=C(N)N)C(=O)O)[C@@H](C)CC [KRIAQRIKAFLR]

SMILES: CC(C)C[C@H](NC(=O)[C@H](CCCCN)NC(=O)[C@H](CCCCN)NC(=O)[C@H](C)NC(=O)[C@H](CC(C)C)NC(=O)[C@H](CCCCN)NC(=O)[C@H](C)NC(=O)[C@H](CC(C)C)NC(=O)[C@H](CCCCN)NC(=O)[C@H](CCCCN)NC(=O)[C@H](C)NC(=O)[C@@H](N)Cc1ccccc1)C(N)=O [FAKKLAKLAKKL]
- MIC [5]: 18.4 µM (≈ 25 µg/mL)
- MIC [6]: 73.6 µM (≈ 99.9 µg/mL)

- MIC (Escherichia coli): 100 µM (≈ 163 µg/mL)
- MIC (Bacillus subtilis): ≥ 87.5 µM
SMILES: CC[C@H](C)[C@H](N)C(=O)N[C@@H](CC(N)=O)C(=O)N[C@@H](Cc1c[nH]c2ccccc12)C(=O)N[C@@H](CO)C(=O)N[C@@H](CO)C(=O)N[C@H](C(=O)N[C@@H](Cc1ccccc1)C(=O)N[C@@H](CCC(=O)O)C(=O)N[C@@H](CO)C(=O)N[C@H](C(=O)N[C@@H](CCCCN)C(=O)N[C@@H](CC(N)=O)C(=O)N[C@@H](CC(C)C)C(=O)N[C@H](C(N)=O)C(C)C)C(C)C)[C@@H](C)CC [INWSSIFESVKNLV]

- MIC [7]: 7.69 µM (≈ 16.5 µg/mL)
- MIC [8]: 62 µM (≈ 133 µg/mL)
- MIC [2]: 62 µM (≈ 133 µg/mL)
- MIC [3]: 62 µM (≈ 133 µg/mL)
SMILES: CC(C)C[C@H](NC(=O)[C@H](CC(C)C)NC(=O)[C@H](CCCCN)NC(=O)[C@@H](N)Cc1c[nH]c2ccccc12)C(=O)N[C@@H](CO)C(=O)N[C@@H](CCCCN)C(=O)N[C@@H](C)C(=O)N[C@@H](CCC(N)=O)C(=O)N[C@@H](CCC(=O)O)C(=O)N[C@@H](CCCCN)C(=O)N[C@@H](Cc1ccccc1)C(=O)NCC(=O)N[C@@H](CCCCN)C(=O)N[C@@H](CC(N)=O)C(=O)N[C@@H](CCCCN)C(=O)N[C@@H](CO)C(=O)N[C@@H](CCCN=C(N)N)C(=O)N[C@@H](CS)C(N)=O [WKLLSKAQEKFGKNKSRC]

- MIC [1]: 37.4 µM (≈ 50 µg/mL)
- MIC [9]: > 29.9 µM
SMILES: CC[C@H](C)[C@H](NC(=O)[C@H](CCCCN)NC(=O)[C@H](CO)NC(=O)[C@H](CC(C)C)NC(=O)[C@H](CC(C)C)NC(=O)CNC(=O)[C@H](C)NC(=O)[C@@H](NC(=O)[C@H](C)NC(=O)CNC(=O)[C@@H](NC(=O)[C@@H](N)Cc1ccccc1)[C@@H](C)CC)C(C)C)C(=O)N[C@@H](Cc1ccccc1)C(N)=O [FIGAVAGLLSKIF]

- MIC [8]: 1.5 µM (≈ 3.93 µg/mL)
- MIC [2]: 50 µM (≈ 131 µg/mL)
- MIC [4]: 3 µM (≈ 7.86 µg/mL)
SMILES: CC[C@H](C)[C@@H]1NC(=O)[C@H](Cc2ccccc2)NC(=O)[C@@H](NC(=O)[C@H](Cc2ccccc2)NC(=O)[C@@H](NC(=O)[C@H](CCCCN)NC(=O)[C@@H]2CCCN2C(=O)[C@H](CC(C)C)NC(=O)[C@@H](NC(=O)[C@H](CCCCN)NC(=O)[C@H](C)NC(=O)[C@H](C)NC(=O)[C@@H](NC(=O)[C@H](CO)NC(=O)[C@H](C)NC(=O)[C@@H](NC(=O)[C@@H](NC(=O)[C@@H]2CCCN2C(=O)[C@H](CC(C)C)NC(=O)[C@@H](N)Cc2ccccc2)C(C)C)[C@@H](C)CC)C(C)C)C(C)C)C(C)C)CSSC[C@@H](C(=O)O)NC(=O)[C@H](CCCCN)NC(=O)[C@H](CCCCN)NC(=O)[C@H]([C@@H](C)O)NC1=O [FLPVIASVAAKVLPKVFCFITKKC]

- MIC [9]: > 121 µM
- MIC [8]: 121 µM (≈ 128 µg/mL)
- MIC [2]: 121 µM (≈ 128 µg/mL)
- MIC [3]: 7.55 µM (≈ 7.99 µg/mL)
SMILES: CC(C)C[C@H](NC(=O)[C@H](CC(C)C)NC(=O)[C@H](CCCCN)NC(=O)[C@H](CCCCN)NC(=O)[C@H](CC(C)C)NC(=O)CNC(=O)[C@H](CCCCN)NC(=O)[C@H](CC(C)C)NC(=O)[C@@H](N)Cc1ccccc1)C(N)=O [FLKGLKKLL]

- MIC [8]: 50 µM (≈ 97.8 µg/mL)
- MIC [2]: 25 µM (≈ 48.9 µg/mL)
- MIC [4]: 25 µM (≈ 48.9 µg/mL)
SMILES: CC[C@H](C)[C@H](NC(=O)[C@H](CCCCN)NC(=O)CNC(=O)[C@@H](NC(=O)[C@@H](NC(=O)[C@H](CO)NC(=O)CNC(=O)[C@H](C)NC(=O)[C@H](CCCCN)NC(=O)[C@H](CO)NC(=O)[C@H](C)NC(=O)[C@H](CCSC)NC(=O)CN)[C@@H](C)CC)C(C)C)C(=O)N[C@@H](C)C(=O)N[C@@H](CCCCN)C(=O)N[C@H](C(=O)N[C@@H](C)C(=O)N[C@@H](CC(C)C)C(=O)NCC(=O)N[C@@H](C)C(=O)N[C@@H](CC(C)C)C(N)=O)[C@@H](C)CC [GMASKAGSIVGKIAKIALGAL]

- MIC (Candida albicans): 82 µM (≈ 144 µg/mL)
SMILES: CC(C)C[C@H](NC(=O)[C@H](C)NC(=O)[C@H](CCCCN)NC(=O)[C@H](C)NC(=O)[C@H](CC(C)C)NC(=O)[C@H](C)NC(=O)[C@H](CCCCN)NC(=O)[C@H](C)NC(=O)[C@H](C)NC(=O)[C@H](C)NC(=O)[C@H](CCCCN)NC(=O)[C@H](C)NC(=O)[C@@H](NC(=O)[C@H](C)NC(=O)[C@H](CCCCN)NC(=O)[C@H](C)NC(=O)[C@H](CC(C)C)NC(=O)[C@@H](N)Cc1ccccc1)C(C)C)C(=O)O [FLAKAVAKAAAKALAKAL]

SMILES: CC(C)C[C@H](NC(=O)[C@H](C)NC(=O)[C@H](CCCCN)NC(=O)[C@H](C)NC(=O)[C@H](CC(C)C)NC(=O)[C@H](CCCCN)NC(=O)[C@H](CCCCN)NC(=O)[C@H](C)NC(=O)[C@H](CC(C)C)NC(=O)[C@H](CCCCN)NC(=O)[C@H](CCCCN)NC(=O)[C@H](C)NC(=O)[C@@H](N)Cc1ccccc1)C(N)=O [FAKKLAKKLAKAL]
- MIC [5]: 3.5 µM (≈ 5 µg/mL)
- MIC [6]: 10.5 µM (≈ 15 µg/mL)

- MIC [4]: ≥ 100 µM
SMILES: CC[C@H](C)[C@H](NC(=O)[C@H](CCCCN)NC(=O)[C@H](CC(=O)O)NC(=O)[C@H](CC(C)C)NC(=O)[C@@H](NC(=O)[C@H](CC(N)=O)NC(=O)[C@@H](NC(=O)[C@H](Cc1ccccc1)NC(=O)[C@H](CC(C)C)NC(=O)[C@H](CCCCN)NC(=O)[C@H](CCCCN)NC(=O)CN)C(C)C)C(C)C)C(=O)N[C@@H](CCCN=C(N)N)C(=O)N[C@H]1CSSC[C@@H](C(=O)O)NC(=O)CNC(=O)CNC(=O)[C@H](C)NC(=O)[C@H](C(C)C)NC(=O)[C@H](CCCCN)NC1=O [GKKLFVNVLDKIRCKVAGGC]

- MIC [9]: 14.1 µM (≈ 16 µg/mL)
- MIC [8]: 14.1 µM (≈ 16 µg/mL)
- MIC [2]: 28.2 µM (≈ 32 µg/mL)
- MIC [3]: 7.06 µM (≈ 7.99 µg/mL)
SMILES: CSCC[C@H](NC(=O)[C@H](CCCCN)NC(=O)[C@H](CC(C)C)NC(=O)[C@@H](N)Cc1ccccc1)C(=O)N[C@@H](CC(C)C)C(=O)N[C@@H](CCCCN)C(=O)N[C@@H](CCCCN)C(=O)N[C@@H](CC(C)C)C(=O)N[C@@H](CC(C)C)C(N)=O [FLKMLKKLL]

- MIC (Escherichia coli): 70 µM (≈ 114 µg/mL)
- MIC (Bacillus subtilis): ≥ 35 µM
SMILES: CC[C@H](C)[C@H](N)C(=O)N[C@@H](CC(N)=O)C(=O)N[C@@H](Cc1c[nH]c2ccccc12)C(=O)N[C@@H](CC(C)C)C(=O)N[C@@H](CCCCN)C(=O)N[C@@H](CC(C)C)C(=O)NCC(=O)N[C@@H](CCCCN)C(=O)N[C@@H](CCCCN)C(=O)N[C@@H](CCSC)C(=O)N[C@@H](CCSC)C(=O)N[C@@H](CO)C(=O)N[C@@H](C)C(=O)N[C@H](C(N)=O)[C@@H](C)CC [INWLKLGKKMMSAI]

SMILES: CC(C)C[C@H](NC(=O)[C@H](CCCCN)NC(=O)[C@H](CCCCN)NC(=O)[C@H](C)NC(=O)[C@H](CC(C)C)NC(=O)[C@H](CCCCN)NC(=O)[C@H](C)NC(=O)[C@H](CC(C)C)NC(=O)[C@H](CC(C)C)NC(=O)[C@H](CCCCN)NC(=O)[C@H](C)NC(=O)[C@@H](N)Cc1ccccc1)C(N)=O [FAKLLAKLAKKL]
- MIC [5]: 149 µM (≈ 200 µg/mL)
- MIC [6]: 7.44 µM (≈ 9.99 µg/mL)

- MIC (Staphylococcus aureus): 434 µM (≈ 1000 µg/mL)
- MIC (Escherichia coli): 217 µM (≈ 500 µg/mL)
- MIC (Candida albicans): > 400 µM
SMILES: CC[C@H](C)[C@H](NC(=O)CNC(=O)[C@H](CCCCN)NC(=O)[C@@H](NC(=O)[C@H](CC(C)C)NC(=O)[C@H](CO)NC(=O)CNC(=O)[C@H](CC(C)C)NC(=O)CNC(=O)[C@H](C)NC(=O)[C@H](CCCCN)NC(=O)[C@H](CC(C)C)NC(=O)[C@@H](NC(=O)[C@H](CCC(=O)O)NC(=O)[C@H](CCCCN)NC(=O)[C@H](Cc1ccccc1)NC(=O)CN)C(C)C)C(C)C)C(=O)N1CCC[C@H]1C(=O)N[C@@H](C)C(=O)N[C@@H](Cc1cnc[nH]1)C(=O)N[C@H](C(=O)N[C@@H](C)C(=O)N[C@@H](CC(N)=O)C(N)=O)C(C)C [GFKEVLKAGLGSLVKGIPAHVAN]

- MIC (Staphylococcus aureus): 64 µM (≈ 111 µg/mL)
- MIC [1]: 16 µM (≈ 27.7 µg/mL)
- MIC [9]: > 64 µM
- MIC [10]: > 64 µM
- MIC [2]: > 64 µM
SMILES: CC[C@H](C)[C@H](NC(=O)[C@H](Cc1ccccc1)NC(=O)[C@@H]1CCCN1C(=O)[C@@H](NC(=O)[C@@H](N)CC(C)C)C(C)C)C(=O)NCC(=O)N[C@@H](CCCN=C(N)N)C(=O)N[C@H](C(=O)N[C@@H](CC(C)C)C(=O)NCC(=O)NCC(=O)N[C@@H](CC(C)C)C(=O)N[C@@H](CC(C)C)C(=O)N[C@@H](C)C(=O)N[C@@H](CCCN=C(N)N)C(=O)N[C@@H](Cc1ccccc1)C(N)=O)[C@@H](C)O [LVPFIGRTLGGLLARF]

- MIC [1]: 40 µM (≈ 63.3 µg/mL)
- MIC [2]: 20 µM (≈ 31.7 µg/mL)
- MIC [3]: 40 µM (≈ 63.3 µg/mL)
- MIC [4]: ≥ 40 µM
SMILES: CC[C@H](C)[C@H](NC(=O)[C@H](CCCN=C(N)N)NC(=O)[C@@H](N)CCCCN)C(=O)N[C@H](C(=O)N[C@@H](CCC(N)=O)C(=O)N[C@@H](CCCN=C(N)N)C(=O)N[C@@H](CCCCN)C(=O)N[C@@H](CCCCN)C(=O)N[C@@H](CC(=O)O)C(=O)N[C@@H](CCCCN)C(=O)N[C@@H](CCCCN)C(=O)N[C@@H](CCCN=C(N)N)C(=O)O)C(C)C [KRIVQRKKDKKR]
